Experimental findings from US7763652B2, “Prostaglandin derivatives” (Taisho Pharmaceutical Co., Ltd., priority 2002, dated 2010) are described below.

SMILES strings stand for the structures.

The experiment deals with male cynomolgus monkeys. The experiment is described as follows: Sleep-inducing test by cisternal administration. It counts as in vivo. The following applies: cisternal infusion; for Sleep time: sleep time over three hours after administration, four male cynomolgus monkeys; for Number of slept animals: three hours after administration. The method, then: Sleep-Inducing Test by Cisternal Administration
Four male cynomolgus monkeys weighing 2.0-3.5 kg were individually placed in cages. The behaviors of the respective animals were recorded by videotape from one hour before drug administration to three hours after drug administration. Compound 16 was dissolved in physiological saline solution and sterilized using a Minipore filter. The drug was cisternally infused into the monkeys anesthetized with isoflurane inhalation. The dose was 10 μg/0.1 ml per monkey and 100 μg/0.1 ml per monkey. The same dose of the vehicle was infused cisternally to the control group. The test schedule was carried out according to the following protocol.
Week 1: Group treated with vehicle
Week 2: Group treated with 10 μg of Compound 16/monkey
Week 3: Group treated with 100 μg of Compound 16/monkey
The sleep times at three hours after administration were determined by playing back the recorded videotape and measuring the times (second) during which the animals relaxed with their both eyes closed, which are shown in Table 2.

Take `O=C(O)C#CCCSCC1C(Cl)CC(O)C1C#CC(O)C1CCCCC1` (stereo not drawn) [Compound 16, 9-Deoxy-9β-chloro-16,17,18,19,20-pentanor-15-cyclohexyl-2,2,3,3,13,14-hexadehydro-6-thia-PGF1α]: the Sleep time came out at 293 s (10 μg/0.1 ml per monkey) and 1734 s (100 μg/0.1 ml per monkey). Further, the “Number of slept animals” value (10 μg/0.1 ml per monkey) was 3/4 and the “Number of slept animals” value (100 μg/0.1 ml per monkey) is reported as 4/4.
